This assay has as its system T1, STING.
T1 construct: endogenous in cells; host or cells: THP-1
Briefly: Functional assay IV (THP-1 antagonist assay), IFNβ secretion after Bacmam virus. Format: cell-based, human. Conditions: THP-1 cells, Bacmam virus MOI of 40 pfu/cell; upper limit of the assay 9.1.

As to `CCn1nc(C)cc1C(=O)/N=c1\n(C)c2cc(C(N)=O)ccc2n1CCCCCn1/c(=N/C(=O)c2cc(C)nn2CC)n(C)c2cc(C(N)=O)ccc21` [Example 24], the “THP-1 antagonist assay (pIC50)” value worked out at 4.6.

The values above are taken from patent US11377440B2, “Modulators of stimulator of interferon genes (STING)” (GlaxoSmithKline Intellectual Property Development Limited, priority 2017, dated 2022).
